Data on 46 molecules can be found in paper PMC12040169 (PLOS Biology, 2025).

Tested on in the first data set: not listed separately
Put plainly: in vitro. More on the design: Viability of infected HeLa host cells, resazurin conversion, bulk resorufin fluorescence relative to DMSO. The conditions noted are these: human, hela cells; bulk resorufin, mean of 2.
By viability is commonly meant a read-out of living cells in per cent, often relative to untreated cells. Turning to `CC(C)(CN)CN(Cc1ccccc1Br)C(=O)NC(c1ccccc1)c1ccccc1` [CBK002488C], the viability at 28.5 h, 1 µM turned out to be 92.2%; the viability at 28.5 h, 5 µM was 93.1%; the viability at 28.5 h, 10 µM came to 90%.

For `CN(C(=O)c1ccc(Cl)c(Cl)c1)[C@H]1CCC[C@H]1N1CCCC1` [CBK003411C], the viability at 28.5 h, 1 µM is 112%; the viability at 28.5 h, 5 µM turned out to be 111%; the viability at 28.5 h, 10 µM came out at 118%.

`FC(F)(F)c1ccc(N2CCNCC2)nc1OCc1ccc2c(c1)OCCO2` [CBK003994A]: the viability at 28.5 h, 1 µM came to 100%; the viability at 28.5 h, 5 µM worked out at 103%; the viability at 28.5 h, 10 µM was 96.6%.

For the molecule `CCOc1ccc2nc(NC(=N)N)nc(C)c2c1` [CBK010384C], the viability at 28.5 h, 1 µM was found to be 90.4%; the viability at 28.5 h, 5 µM worked out at 102%; the viability at 28.5 h, 10 µM amounted to 94.8%.

Tested on in another data set: not listed separately
Put plainly: in vitro. The conditions noted are these: human, hela cells, % viability.
Turning to `O=C(NC1CC1)c1cnc2ccc(F)cc2c1O` [CBK307629], the viability at 28.5 h, 10 µM turned out to be 82.4%.

Regarding `Cc1cc(C)n(C2CN(C(=O)NCCCOc3cccnc3)C2)n1` [CBK307632], the viability at 28.5 h, 10 µM was determined as 84.1%.

With `CCn1c(=O)oc2cc(NC(=O)NCCCc3csc(N)n3)ccc21` [CBK307633], the viability at 28.5 h, 10 µM came out at 79.7%.

For the molecule `Cc1cc(C)n2nc(C(=O)NCCCn3ccnc3C(C)C)nc2n1` [CBK307635], the viability at 28.5 h, 10 µM worked out at 94%.

For the molecule `CCOc1ccc(NC(=O)N(Cc2cnn(C)c2)CC(C)C)cc1C#N` [CBK307636], the viability at 28.5 h, 10 µM was 93%.

Turning to `CCCn1ncc(C(=O)NC(CC)c2cn3cccnc3n2)c1C` (centres unmarked) [CBK307640], the viability at 28.5 h, 10 µM is 92.9%.

Turning to `COCCN(Cc1cnn(C)c1)C(=O)NCc1nc2c(C)cccc2o1` [CBK307642], the viability at 28.5 h, 10 µM was 86.8%.

On to `CN(Cc1nc(-c2ccccc2)no1)C(=O)COCC1CCCCO1` (centres unmarked) [CBK307643], for which the viability at 28.5 h, 10 µM stood at 106%.

As to `CCOc1ccc(-c2ccnc(N3CCOC(CN)C3)n2)cc1C(=O)O` (centres unmarked) [CBK307644], the viability at 28.5 h, 10 µM came out at 84%.

As to `Cn1c(O)c(CCNc2cc(C3CCOC3)ncn2)cnc1=O` (centres unmarked) [CBK307648], the viability at 28.5 h, 10 µM is 90.7%.

`CCOc1ccc(-c2ccnc(N3CCCC(C)(O)C3)n2)cc1C(=O)O` (centres unmarked) [CBK307652]: the viability at 28.5 h, 10 µM turned out to be 117%.

With `Cc1ccc2c(c1)C(NC(=O)N(C)C1CCS(=O)(=O)CC1)CC(C)(C)O2` (centres unmarked) [CBK307654], the viability at 28.5 h, 10 µM turned out to be 108%.

As to `CC(C)CCN(C)C(=O)c1cccc(S(=O)(=O)NCc2ccsc2)c1` [CBK307656], the viability at 28.5 h, 10 µM turned out to be 110%.

Take `CN(Cc1nccs1)C(=O)NC1CCN(Cc2cccc(O)c2)CC1` [CBK307657]: the viability at 28.5 h, 10 µM turned out to be 96.7%.

Turning to `Cc1nn(C)c(C)c1-c1ccnc(NCCC2(O)CCN(C)CC2)n1` [CBK307659], the viability at 28.5 h, 10 µM was 86.1%.

With `CC(=O)Nc1ccc(CNC(=O)CN(C)Cc2cccc(O)c2)cc1` [CBK307660], the viability at 28.5 h, 10 µM came to 84.8%.

On to `COc1cc(Cn2ncc(N3CCCCC3)cc2=O)cc(OC)c1` [CBK307662], for which the viability at 28.5 h, 10 µM came to 97.1%.

As to `COc1cccn(CC(=O)N2CCc3sc(C(=O)N(C)C)cc3C2)c1=O` [CBK307665], the viability at 28.5 h, 10 µM came to 90.5%.

Take `CC(C)c1nc(CCN(C)C(=O)NCc2cnc3cnccn23)no1` [CBK307666]: the viability at 28.5 h, 10 µM stood at 108%.

Consider `Cc1nn(CC(=O)N(C)C(C)c2ccncn2)c(=O)c2ccccc12` (centres unmarked) [CBK307669], for which the viability at 28.5 h, 10 µM was determined as 89%.

Take `CCc1nnsc1C(=O)Nc1nn(C)c2cccc(N3CCOCC3)c12` [CBK307671]: the viability at 28.5 h, 10 µM amounted to 84.4%.

For `COc1ccccc1CN(Cc1cccnc1)C(=O)NC(C)C(C)C` (centres unmarked) [CBK307672], the viability at 28.5 h, 10 µM was 85.2%.

Regarding `Cc1nc(CCNC(=O)N(Cc2ccsc2)C2CC2)nc2c1CCCC2` [CBK307674], the viability at 28.5 h, 10 µM is 88.5%.

Take `COc1cccc2ncn(CCc3csc(N)n3)c(=O)c12` [CBK307679]: the viability at 28.5 h, 10 µM was 81.9%.

`COCCN1CC(CNC(=O)c2ccc(N3CCCC3)c(Cl)c2)CC1=O` (centres unmarked) [CBK307680]: the viability at 28.5 h, 10 µM stood at 84%.

For the molecule `CN1CCC(OCCCn2ccnc2-c2nccn2C)CC1` [CBK307683], the viability at 28.5 h, 10 µM was 96.2%.

As for `CCC(C(=O)Nc1nccs1)N(C)Cc1n[nH]c2c1CCC2` (centres unmarked) [CBK307685], the viability at 28.5 h, 10 µM amounted to 99%.

For `CC1(C)Cc2nc(N3CCOCC3)ncc2C(NC(=O)C2CCCC2)C1` (centres unmarked) [CBK307687], the viability at 28.5 h, 10 µM is 115%.

Turning to `CCCc1ccc(-c2nccn2CCn2cc(C)nn2)o1` [CBK307688], the viability at 28.5 h, 10 µM is 101%.

As for `Cn1ncc(N2CCC(CNC(=O)Cc3ccc(O)c(Cl)c3)C2)cc1=O` (centres unmarked) [CBK307689], the viability at 28.5 h, 10 µM was 113%.

Turning to `Cc1nc(C2CC(O)C2)cc(N(C)CCOc2cccc(Cl)c2)n1` (centres unmarked) [CBK307691], the viability at 28.5 h, 10 µM worked out at 94.6%.

On to `CCOc1ccc(-c2ccnc(NCC3CCCOC3)n2)cc1C(=O)O` (centres unmarked) [CBK307694], for which the viability at 28.5 h, 10 µM is 88.2%.

Consider `Cc1ccc(C)c(OCCN(C)c2cc(C3CC(N)C3)nc(N)n2)c1` (centres unmarked) [CBK307695], for which the viability at 28.5 h, 10 µM worked out at 45.4%.

In the case of `CCOc1ccc(-c2ccnc(N3CCN(CC)CC3)n2)cc1C(=O)O` [CBK307697], the viability at 28.5 h, 10 µM was found to be 80.6%.

`CCC(O)CNC(=O)c1coc(COc2ccc3sc(C)nc3c2)n1` (centres unmarked) [CBK307700]: the viability at 28.5 h, 10 µM came to 90.8%.

For `Cn1ncc2c(NCC(=O)N3CCNCC3)nc(C(C)(C)C)nc21` [CBK307702], the viability at 28.5 h, 10 µM turned out to be 120%.

On to `CCCOC1CCCN(c2nccc(-c3cc(C(=O)O)ccn3)n2)C1` (centres unmarked) [CBK307703], for which the viability at 28.5 h, 10 µM came to 101%.

For the molecule `COCCNc1nc2c(c(N3CCC(C#N)CC3)n1)CCNCC2` [CBK307706], the viability at 28.5 h, 10 µM turned out to be 86.6%.

Consider `Cc1ccc2nc(N3CCCC(O)C3)c(CN3CCN(C)CC3)cc2c1` (centres unmarked) [CBK307710], for which the viability at 28.5 h, 10 µM was 100%.

Turning to `CCN(CCc1nc2cc(OC)ccc2[nH]1)C(=O)c1ccc(=O)n(C)n1` [CBK307712], the viability at 28.5 h, 10 µM amounted to 108%.

As for `COc1ccccc1CN(Cc1cccnc1)C(=O)CCC(F)(F)F` [CBK307713], the viability at 28.5 h, 10 µM was found to be 92.3%.

For a further data set, the system named is T1, C. trachomatis L2/434/Bu expressing GFP (CTL2-GFP).
T1 construct: L2/434/Bu GFP intracellular growth in HeLa cells
Put plainly: microbe, parasite or virus in culture. Details: C. trachomatis total inclusion area by high-content imaging, normalised to DMSO. Conditions: Chlamydia trachomatis, HeLa, 28.5 h; total inclusion area; read-out: % of control remaining. From the text: We screened a library of 36,785 small molecules displaying drug-like properties and covering a wide chemical space (Fig 1A and S2A Data). In this process, we also complemented the assay described above with an imaging-based readout (Fig 1B). After measurements of bulk GFP and resorufin fluorescence, cells were fixed, stained with the DNA dye Hoechst, and imaged at a high-content imaging platform to detect chlamydial inclusions (GFP) and host cell nuclei (Hoechst). The total area and number of inclusions in individual wells and the number of nuclei then served as additional proxies for chlamydial growth and host cell viability. […] MICs were calculated as described above.
For the molecule `CC(C)(CN)CN(Cc1ccccc1Br)C(=O)NC(c1ccccc1)c1ccccc1` [CBK002488C], the activity at 1 µM is 112%, the activity at 5 µM turned out to be 116% and the activity at 10 µM was 38.2%.

On to `CN(C(=O)c1ccc(Cl)c(Cl)c1)[C@H]1CCC[C@H]1N1CCCC1` [CBK003411C], for which the activity at 1 µM worked out at 52.8%, the activity at 5 µM was 1.24% and the activity at 10 µM worked out at 0.29%.

For `FC(F)(F)c1ccc(N2CCNCC2)nc1OCc1ccc2c(c1)OCCO2` [CBK003994A], the activity at 1 µM was found to be 82.5%, the activity at 5 µM stood at 8.88% and the activity at 10 µM amounted to 7.41%.

`CCOc1ccc2nc(NC(=N)N)nc(C)c2c1` [CBK010384C]: the activity at 1 µM worked out at 87%, the activity at 5 µM was 20.7% and the activity at 10 µM worked out at 1.75%.

As for `O=C(O)c1cn(C2CC2)c2cc(N3CCNCC3)c(F)cc2c1=O` [CBK011645], the activity at 1 µM is 11.1%, the activity at 5 µM is 0.824% and the activity at 10 µM is 0.167%.

The subject of a further data set is T2, CTL2-GFP (C. trachomatis L2/434/Bu, GFP-expressing).
T2 construct: L2/434/Bu, GFP-expressing
Put plainly: microbe, parasite or virus in culture. Details: Intracellular C. trachomatis growth in HeLa cells, bulk GFP fluorescence relative to DMSO. The conditions noted are these: Chlamydia trachomatis, HeLa, 28.5 h; bulk GFP, mean of 2; read-out: % of control remaining. The procedure:
MICs were calculated as described above.
With `CC(C)(CN)CN(Cc1ccccc1Br)C(=O)NC(c1ccccc1)c1ccccc1` [CBK002488C], the activity at 1 µM came to 150%, the activity at 5 µM was found to be 114% and the activity at 10 µM turned out to be 85.7%.

As to `CN(C(=O)c1ccc(Cl)c(Cl)c1)[C@H]1CCC[C@H]1N1CCCC1` [CBK003411C], the activity at 1 µM is 32.2%, the activity at 5 µM was 0.223% and the activity at 10 µM was determined as 1.01%.

`FC(F)(F)c1ccc(N2CCNCC2)nc1OCc1ccc2c(c1)OCCO2` [CBK003994A]: the activity at 1 µM was found to be 106%, the activity at 5 µM was 40.3% and the activity at 10 µM was found to be 22.5%.

Take `CCOc1ccc2nc(NC(=N)N)nc(C)c2c1` [CBK010384C]: the activity at 1 µM stood at 121%, the activity at 5 µM came out at 24.6% and the activity at 10 µM amounted to 4.24%.

With `O=C(O)c1cn(C2CC2)c2cc(N3CCNCC3)c(F)cc2c1=O` [CBK011645], the activity at 1 µM came to 12.8%, the activity at 5 µM was determined as 1.31% and the activity at 10 µM worked out at 0%.
